# Assay results as given in US20030032807A1, “Method for the production of 1-amino -3-aryl -uracils” (priority 2000, published 2003).
# Assay: logP determination by HPLC on reversed-phase column (C 18), EEC Directive 79/831 Annex V.A8
# Assay type: physicochemical
# Settings: reversed-phase HPLC column (C 18); at pH=2.3; acid range eluents 0.1% aqueous phosphoric acid/acetonitrile; 43° C.
# Experimental: The determination of the logP value given in Example 1 was carried out according to EEC Directive 79/831 Annex V.A8 by HPLC (High Performance Liquid Chromatography) using a reversed-phase column (C 18). Temperature: 43° C. (a) Eluents for determination in the acid range: 0.1% aqueous phosphoric acid, acetonitrile; linear gradient from 10% acetonitrile to 90% acetonitrile—corresponding measurements are marked in Table 1 by ^a). (b) Eluents for determination in the neutral range: […] aqueous phosphate buffer solution, acetonitrile; linear gradient of 10% acetonitrile to 90% acetonitrile—corresponding measurements are marked in Table 1 by ^b). Calibration was carried out using unbranched alkan-2-ones (having from 3 to 16 carbon atoms), whose logP values are known (determination of logP values using the retention times by linear interpolation between two consecutive alkanones).
row,Compound,chromatographic logP
1,"Nn1c(C(F)(F)F)cc(=O)n(-c2ccc(Br)cc2F)c1=O [Example 1, 1-amino-3-(4-bromo-2-fluorophenyl)-6-trifluoromethyl-2,4-(1H,3H)-pyrimidinedione]",2.41
2,"CCS(=O)(=O)N(C(=O)c1ccccc1)c1cc(-n2c(=O)cc(C(F)(F)F)n(N)c2=O)c(F)cc1C#N [Example 8, N-benzoyl-N-[2-cyano-5-(3-amino-2,6-dioxo-4-trifluoromethyl-3,6-dihydro-1-(2H)-pyrimidinyl)-4-fluorophenyl]ethanesulphonamide]",2.82
